Patent US7368421B2, “Use of dipeptidyl peptidase IV inhibitors in the treatment of multiple sclerosis” (Probiodrug AG, priority 2001, dated 2008)
Entries after “also recorded” stand apart in the source; their conditions may differ. Where a name gives a salt, the structure may show the parent alone. Marks after values point to notes of the source that are not given here. Square brackets hold non-standard residues; d marks the D form. Peptide text beside a SMILES is read from it. pY = N[C@@H](Cc1ccc(OP(=O)(O)O)cc1)C(=O)O

How the values were obtained:
[1] = biological target: T1, plasma DP IV activity (Rattus norvegicus, UniProt P14740); experiment: DP IV inhibiting activity after intravasal and oral administration to Wistar rats; assay type: in vivo; settings: 100 mg/kg; for in vivo DP IV-inhibition at tmax, p.o.: oral; for in vivo DP IV-inhibition at tmax, i.v.: intra-vasal (intra-arterial)
T1 construct: from tissue; host or cells: plasma of Wistar rats
T1 sequence (P14740 37-767 limits assumed): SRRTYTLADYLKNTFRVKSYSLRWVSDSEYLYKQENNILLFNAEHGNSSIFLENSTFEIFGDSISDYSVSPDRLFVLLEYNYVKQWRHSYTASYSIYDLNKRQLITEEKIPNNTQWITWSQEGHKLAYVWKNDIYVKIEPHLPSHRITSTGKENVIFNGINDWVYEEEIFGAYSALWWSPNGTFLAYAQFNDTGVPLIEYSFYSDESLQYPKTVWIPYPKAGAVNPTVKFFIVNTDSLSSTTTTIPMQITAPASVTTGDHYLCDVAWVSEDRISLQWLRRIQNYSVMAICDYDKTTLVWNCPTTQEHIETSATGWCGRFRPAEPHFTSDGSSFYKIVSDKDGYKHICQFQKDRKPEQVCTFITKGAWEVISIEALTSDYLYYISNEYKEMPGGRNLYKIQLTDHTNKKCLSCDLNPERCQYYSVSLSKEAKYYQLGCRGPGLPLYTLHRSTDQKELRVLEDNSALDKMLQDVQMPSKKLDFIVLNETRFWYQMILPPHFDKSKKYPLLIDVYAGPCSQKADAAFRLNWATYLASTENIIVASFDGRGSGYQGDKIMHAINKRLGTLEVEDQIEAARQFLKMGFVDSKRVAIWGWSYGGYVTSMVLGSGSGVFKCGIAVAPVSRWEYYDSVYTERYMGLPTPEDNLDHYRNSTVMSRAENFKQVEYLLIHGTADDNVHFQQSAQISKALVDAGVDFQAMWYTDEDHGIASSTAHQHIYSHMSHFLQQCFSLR
Procedure: Male Wistar rats (Shoe: Wist(Sho)) with a body weight ranging between 250 and 350 g were purchased from Tierzucht Schönwalde (Schönwalde, Germany).
Animals were single-caged under conventional conditions with controlled temperature (22±2° C.) on a 12/12 hours light/dark cycle (light on at 06:00 AM). Standard pelleted chow (ssniff® Soest, Germany) and tap water acidified with HCl were allowed ad libitum.
After ≧one week of adaptation at the housing conditions, catheters were implanted into the carotid artery of Wistar rats under general anaesthesia (i.p. injection of 0.25 ml/kg b.w. Rompun® [2%], BayerVital, Germany and 0.5 ml/kg b.w. Ketamin 10, Atarost GmbH & Co., Twistringen, Germany). The animals were allowed to recover for one week. The catheters were flushed with heparin-saline (100 IU/ml) three times per week. In case of catheter dysfunction, a second catheter was inserted into the contra-lateral carotid artery of the respective rat. After one week of recovery from surgery, this animal was reintegrated into the study. In case of dysfunction of the second catheter, the animal was withdrawn from the study. A new animal was recruited and the experiments were continued in the planned sequence, beginning at least 7 days after catheter implantation.
After overnight fasting, 100 μl samples of heparinised arterial blood were collected at −30, −5, and 0 min. […] In the case of oral administration, an additional volume of 1 ml saline was injected into the arterial catheter. In the case of intra-arterial administration, the catheter was immediately flushed with 30 μl saline and an additional 1 ml of saline was given orally via the feeding tube.
All blood samples were collected into ice cooled Eppendorf tubes (Eppendorf-Netheler-Hinz, Hamburg, Germany) filled with 10 μl 1 M sodium citrate buffer (pH 3.0) for plasma DP IV activity measurement. Eppendorf tubes were centrifuged immediately (12000 rpm for 2 min, Hettich Zentrifuge EBA 12, Tuttlingen; Germany): The plasma fractions were stored on ice until analysis or were frozen at −20° C. until analysis. All plasma samples were labelled with the following data: • Code number • Animal Number • Date of sampling • Time of sampling Analytical Methods
The assay mixture for determination of plasma DP IV activity consisted of 80 μl reagent and 20 μl plasma sample. […] The DP IV activity was expressed in mU/ml.
All parameters were analysed in a descriptive manner including mean and SD.

[2] = biological target: T2, porcine DP II (Sus scrofa, UniProt A0A5G2QK18); experiment: Inhibition of DP IV-like enzymes, dipeptidyl peptidase II; assay type: biochemical
T2 construct: The enzyme used was purified from porcine kidney; from tissue; host or cells: porcine kidney
T2 sequence (A0A5G2QK18 28-502): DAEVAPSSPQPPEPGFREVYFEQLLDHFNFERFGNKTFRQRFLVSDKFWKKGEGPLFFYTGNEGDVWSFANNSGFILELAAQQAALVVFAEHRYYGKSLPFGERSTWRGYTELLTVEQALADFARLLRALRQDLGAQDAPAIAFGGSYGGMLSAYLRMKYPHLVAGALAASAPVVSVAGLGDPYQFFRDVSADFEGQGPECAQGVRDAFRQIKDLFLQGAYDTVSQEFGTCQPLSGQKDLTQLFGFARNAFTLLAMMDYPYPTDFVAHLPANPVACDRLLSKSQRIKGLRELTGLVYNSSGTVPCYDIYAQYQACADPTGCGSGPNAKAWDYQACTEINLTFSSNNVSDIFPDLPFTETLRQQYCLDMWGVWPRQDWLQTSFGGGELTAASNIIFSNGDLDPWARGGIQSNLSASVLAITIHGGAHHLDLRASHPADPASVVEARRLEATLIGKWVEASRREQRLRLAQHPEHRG
Procedure: DP II (3.4.14.2) releases N-terminal dipeptides from oligopeptides if the N-terminus is not protonated (McDonald, J. K., Ellis, S. & Reilly, T. J., 1966, J. Biol. Chem., 241, 1494-1501). Pro and Ala in P1-position are preferred residues. The enzyme activity is described as DP IV-like activity, but DP II has an acidic pH-optimum. The enzyme used was purified from porcine kidney.
100 μl glutaminylpyrrolidine or glutaminylthazolidine in an concentration range of 1*10^−4 M-5*10^−8M were admixed with 100 μl μl buffer solution (40 mM HEPES, pH7.6, 0.015% Brij, 1 mM DTT), 50 μl lysylalanylaminomethylcoumarine solution (5 mM) and 20 μl porcine DP II (250fold diluted in buffer solution). Fluorescence measurement was performed at 30° C. and λexiatation=380 nm, λemission=465 nm for 25 min using a plate reader (HTS7000plus, Applied Biosystems, Weiterstadt, Germany).

[3] = biological target: T3, Dipeptidyl Peptidase I (DP I, Cathepsin C) (Rattus norvegicus, UniProt P80067); experiment: Cross reacting enzymes: dipeptidyl peptidase I; assay type: biochemical; settings: concentration range 1*10^−5M-1*10^−7M
T3 construct: purchased Qiagen GmbH, Hilden, Germany
T3 sequence (P80067 25-462): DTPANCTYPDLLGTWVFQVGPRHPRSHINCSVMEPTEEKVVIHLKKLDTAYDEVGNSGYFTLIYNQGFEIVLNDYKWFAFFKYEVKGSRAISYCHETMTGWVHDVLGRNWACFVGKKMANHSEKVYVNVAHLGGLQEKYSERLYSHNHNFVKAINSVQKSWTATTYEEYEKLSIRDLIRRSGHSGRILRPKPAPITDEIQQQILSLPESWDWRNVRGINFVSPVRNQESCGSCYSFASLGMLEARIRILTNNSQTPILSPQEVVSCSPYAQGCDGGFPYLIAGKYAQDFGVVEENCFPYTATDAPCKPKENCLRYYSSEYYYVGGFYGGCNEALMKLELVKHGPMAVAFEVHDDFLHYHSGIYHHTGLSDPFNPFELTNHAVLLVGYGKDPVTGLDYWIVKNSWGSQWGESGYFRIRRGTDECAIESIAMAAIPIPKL
Procedure: DP I or cathepsin C is a lysosomal cysteine protease which cleaves off dipeptides from the N-terminus of their substrates (Gutman, H. R. & Fruton, J. S., 1948, J. Biol. Chem., 174, 851-858). It is classified as a cysteine protease. The enzyme used was purchased from Qiagen (Qiagen GmbH, Hilden, Germany). In order to get a fully active enzyme, the enzyme was diluted 1000 fold in MES buffer pH5,6 (40 mM MES, 4 mM DTT, 4 mM KCl, 2 mM EDTA, 0.015% Brij) and pre-incubated for 30 min at 30° C.
50 μl glutaminylpyrrolidine or glutaminylthazolidine in a concentration range of 1*10^−5M-1*10^−7M were admixed with 110 μl buffer-enzyme-mixture. The assay mixture was pre-incubated at 30° C. for 15 min. After pre-incubation, 100 μl, histidylseryl-β-nitroaniline (2*10^−5M) was added and measurement of yellow color development due to β-nitroaniline release was performed at 30° C. and […] for 10 min., using a plate reader (HTS7000 plus, Applied Biosystems, Weiterstadt, Germany).
The IC 50-values were calculated using Graphit 4.0.15 (Erithacus Software, Ltd., UK).

[4] = system: EAE; settings: chronic treatment, female Lewis rats; cited from earlier work
[5] = system: experimental autoimmune encephalomyelitis (EAE); experiment: EAE experiment 1: i.p. treatment day 1-15, female Lewis rats; assay type: in vivo
Procedure: (§1) For the first experiment female inbred Lewis rats (n=50) with a mean body weight of 190±6 g, were obtained from Charles River (Bad Sulzfeld, Germany). Animals were randomly assigned to the different experimental conditions. Rats were housed four per cage under a 12:12 h light: dark cycle (lights off at 18:00 h) and at constant temperature (24° C.) in a specific pathogen free air-conditioned colony room with food (Altromin lab chow pellets) and tap water available ad lib. The animals underwent routine cage maintenance once a week. All research and animal care procedures were approved by the government of Lower Saxony in Hannover, Germany, and performed in compliance with international animal welfare standards.
Guinea pig MBP (50 μg/rat) was emulsified in Complete Freund's adjuvant (CFA) containing heat-killed Mycobacterium tuberculosis (H37Ra; 225 μg/rat) and injected s.c. at the base of the tail in a total volume of 100 μl (12). CFA (Sigma) and heat-killed Mycobacterium tuberculosis (H37Ra) were purchased from Life Technologies, Inc. (Rockville, Md.). Clinical disease was scored on the following scale: 0.5: partial loss of tail tone; 1.0: complete tail atony; 2.0: hind limb weakness; 2.5: hind limb paralysis of one leg; 3.0: hind limb paralysis of both legs; 3.5: limb paralysis of three legs; 4.0: quadriplegia and moribund status; 5.0: death due to EAE. Experiments were terminated on day 15 post immunization when most of the animals were about 48 h after maximal clinical score. The incidence of adjuvant-induced arthritis was remarkably low (n=0 in the 1st experiment) using the base of the tail as an immunization site. […]
Comparison over time between the clinical course of EAE of the different treatment conditions was conducted using a two factorial analysis of variance (ANOVA) for repeated measures. Sums of clinical scores of EAE, onset and peak of disease were calculated on the basis of the clinical scores per day and analyzed using a one factorial ANOVA and post hoc Fisher's PLSD tests, if appropriate. […]

[6] = system: experimental autoimmune encephalomyelitis (EAE); experiment: EAE experiment 2: i.p. treatment day 5-15, male Lewis rats; assay type: in vivo; set-up: key to Average score / Maximal score: 0.5 = partial tail tone loss … 4 = quadriplegia, 5 = death; Onset of disease (1st day of score > 1): unit not given here; settings: for Average score / Maximal score / Onset of disease (1st day of score > 1) / Sum of scores: days 5-15 p.i.
Procedure: as §1, with “second experiment, male” for “first experiment female”, “230±12” for “190±6”, “week.” for “week. All research and animal care procedures were approved by the government of Lower Saxony in Hannover, Germany, and performed in compliance with international animal welfare standards.”
Guinea pig MBP (50 μg/rat) was emulsified in Complete Freund's adjuvant (CFA) containing heat-killed Mycobacterium tuberculosis (H37Ra; 225 μg/rat) and injected s.c. at the base of the tail in a total volume of 100 μl (12). CFA (Sigma) and heat-killed Mycobacterium tuberculosis (H37Ra) were purchased from Life Technologies, Inc. (Rockville, Md.). Clinical disease was scored on the following scale: 0.5: partial loss of tail tone; 1.0: complete tail atony; 2.0: hind limb weakness; 2.5: hind limb paralysis of one leg; 3.0: hind limb paralysis of both legs; 3.5: limb paralysis of three legs; 4.0: quadriplegia and moribund status; 5.0: death due to EAE. Experiments were terminated on day 21 post immunization (p.i.).
The incidence of adjuvant-induced arthritis was remarkably low (n=0 in the 2nd experiment) using the base of the tail as an immunization site. In the second experiment no signs of arthritis were found. […] This time, these animals remained in the analysis, because this finding is probably due to the treatment. In this experiment a phenomenon called “disease dissociation” was observed. In several animals there was a clear tonus of the tail associated with a clear weakness of the hind limbs. The animals were scored maximal, i.e. 2.
Comparison over time between the clinical course of EAE of the different treatment conditions was conducted using a two factorial analysis of variance (ANOVA) for repeated measures. Sums of clinical scores of EAE, onset and peak of disease were calculated on the basis of the clinical scores per day and analyzed using a one factorial ANOVA and post hoc Fisher's PLSD tests, if appropriate. All data are presented as means±SEM.

[7] = biological target: purified porcine DP IV (Sus scrofa, UniProt P22411); experiment: Determination of IC50 values, DP IV; assay type: biochemical; settings: Gly-Pro-pNA 0.4 mM, HEPES pH 7.6, 30° C.
Sequence of purified porcine DP IV (P22411 whole entry): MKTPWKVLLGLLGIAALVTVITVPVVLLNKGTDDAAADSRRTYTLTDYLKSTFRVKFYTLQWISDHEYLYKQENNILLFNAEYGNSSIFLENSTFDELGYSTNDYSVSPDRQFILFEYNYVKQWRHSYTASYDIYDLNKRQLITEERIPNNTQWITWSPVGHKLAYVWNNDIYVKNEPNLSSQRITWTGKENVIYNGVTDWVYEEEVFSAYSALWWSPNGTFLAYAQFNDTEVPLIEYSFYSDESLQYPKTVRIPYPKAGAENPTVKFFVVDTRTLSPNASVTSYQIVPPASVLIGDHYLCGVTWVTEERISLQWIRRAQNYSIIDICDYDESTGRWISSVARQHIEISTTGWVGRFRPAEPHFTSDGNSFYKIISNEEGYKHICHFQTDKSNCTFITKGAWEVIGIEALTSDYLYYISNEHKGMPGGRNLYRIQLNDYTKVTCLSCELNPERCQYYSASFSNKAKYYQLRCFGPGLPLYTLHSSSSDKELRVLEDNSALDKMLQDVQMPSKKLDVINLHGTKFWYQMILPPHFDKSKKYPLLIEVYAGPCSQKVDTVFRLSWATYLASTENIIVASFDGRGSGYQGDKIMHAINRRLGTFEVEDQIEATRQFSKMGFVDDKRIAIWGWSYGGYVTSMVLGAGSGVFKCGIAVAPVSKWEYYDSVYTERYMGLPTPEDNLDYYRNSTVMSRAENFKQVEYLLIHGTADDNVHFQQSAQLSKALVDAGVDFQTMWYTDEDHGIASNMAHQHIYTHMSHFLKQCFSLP
Procedure: 100 μl inhibitor stock solution were mixed with 100 μl buffer (HEPES pH7.6) and 50 μl substrate (Gly-Pro-pNA, final concentration 0.4 mM) and preincubated at 30° C. Reaction was started by addition of 20 μl purified porcine DP IV. Formation of the product pNA was measured at 405 nm over 10 min using the HTS 7000Plus plate reader (Perkin Elmer) and slopes were calculated. The final inhibitor concentrations ranged between 1 mM and 30 nM. For calculation of IC50 GraFit 4.0.13 (Erithacus Software) was used.

CC[C@H](C)[C@H](NC(=O)[C@@H]1CCCN1C(=O)[C@@H](N)Cc1ccc(OP(=O)(O)O)cc1)C(=O)O [Tyr(P)-Pro-Ile] (H-[pY]-Pro-Ile-OH; N-terminus assumed)
in vivo DP IV-inhibition at tmax, p.o. [1]: no inhibition

NC(=O)CCC(N)C(=O)N1CCCC1 (stereo not shown) [Gln-Pyrr, glutaminyl pyrrolidine]
type of inhibition of porcine DP II [2]: non-competitive type inhibitors
inhibition of DP I enzyme activity [3]: no inhibition

Br.CC(C)[C@H](NC(=O)[C@H](C)N)C(=O)N1CCC[C@H]1C(=O)COC(=O)c1ccccc1 [Ala-Val-Pro-Benzoyl-methylketone, H-Ala-Val-Pro-CH2O—C(O)Ph*HBr]
in vivo DP IV-inhibition at tmax, i.v. [1]: 97%
in vivo DP IV-inhibition at tmax, p.o. [1]: 76%

CN(C)CCCN1c2ccccc2CCc2ccccc21 [Imipramine]
severity of acute MBP-induced EAE [4]: reduce the severity

CC[C@H](C)[C@H](N)C(=O)N1CCSC1 [isoleucyl thiazolidine fumarate]
effect on clinical score of EAE, days 11 and 12 p.i. ([5]; 1 mg dosage i.p. daily from day 1, female Lewis rats, fumarate): significant disease-aggravating effect; also recorded: disease-aggravating effects
effect on clinical score of EAE, day 15 p.i. ([5]; 10 mg dose i.p. daily from day 1, female Lewis rats, fumarate): significantly reduced clinical score
shortening of the latency until onset of disease ([5]; 10 mg/kg i.p. daily from day 1, female Lewis rats): about 1 day
effect on clinical scores in the second peak (classical acute EAE), days 10-13 ([6]; 1 mg dose i.p.): aggravate the clinical scores
Average score ([6]; 1 mg/kg i.p. daily): 0.96*
Maximal score ([6]; 1 mg/kg i.p. daily): 2.8
Onset of disease (1st day of score > 1) ([6]; 1 mg/kg i.p. daily): 10.3*
Sum of scores ([6]; 1 mg/kg i.p. daily): 14.2*
effect on disease activity after initiation of treatment, days 6-9 ([6]; 3 mg and 10 mg dosages i.p.): induced a significant first peak of disease activity
Average score ([6]; 3 mg/kg i.p. daily): 0.8
Maximal score ([6]; 3 mg/kg i.p. daily): 3.0
Onset of disease (1st day of score > 1) ([6]; 3 mg/kg i.p. daily): 12.0
Sum of scores ([6]; 3 mg/kg i.p. daily): 12.0
Average score ([6]; 10 mg/kg i.p. daily): 0.72
Maximal score ([6]; 10 mg/kg i.p. daily): 2.1
Onset of disease (1st day of score > 1) ([6]; 10 mg/kg i.p. daily): 12.1
Sum of scores ([6]; 10 mg/kg i.p. daily): 10.8
Average score ([6]; 30 mg/kg i.p. daily): 0.37**
Maximal score ([6]; 30 mg/kg i.p. daily): 2.0*
Onset of disease (1st day of score > 1) ([6]; 30 mg/kg i.p. daily): 14.0***
Sum of scores ([6]; 30 mg/kg i.p. daily): 5.6**
effect on clinical scores in the second peak (classical acute EAE), days 10-13 ([6]; 30 mg/kg i.p., fumarate): clearly improved the clinical course; also recorded: significant delaying and ameliorating effects

NC(=O)CCC(N)C(=O)N1CCSC1 (stereo not shown) [Gln-Thia, glutaminyl thiazolidine]
IC50 [7]: 5.27 µM

Br.CC(=O)OCC(=O)[C@@H]1CCCN1C(=O)[C@@H](NC(=O)[C@H](C)N)C(C)C [Ala-Val-Pro-Acyloxymethylketone, H-Ala-Val-Pro-CH2O—C(O)CH3*HBr]
in vivo DP IV-inhibition at tmax, i.v. [1]: 89%
in vivo DP IV-inhibition at tmax, p.o. [1]: 86%
